Experimental data from patent publication US10807970B2 (priority 2016, dated 2020).

Each molecule was assayed against human σ1 receptor (Homo sapiens, UniProt Q99720) (assay: Human σ1 receptor radioligand assay ([3H](+)-pentazocine, transfected HEK-293 membranes)). Conditions: one class symbol for both Ki-σ1 (human σ1 receptor, A1) and Ki-μ (human μ-opioid receptor, A2).
human σ1 receptor, sequence (Q99720 whole entry): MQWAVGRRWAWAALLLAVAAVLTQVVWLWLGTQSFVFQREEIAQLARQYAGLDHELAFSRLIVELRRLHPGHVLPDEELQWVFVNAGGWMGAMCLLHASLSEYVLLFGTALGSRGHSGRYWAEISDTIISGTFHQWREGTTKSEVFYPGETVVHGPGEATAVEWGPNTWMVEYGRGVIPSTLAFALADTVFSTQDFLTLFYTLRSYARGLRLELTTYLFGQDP
Assay type: binding
Parameters: μ and σ1 dual binding: key to the marks not given beside the values
Procedure, shortened: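 Membranes from HEK-293 cells transfected with human σ1 receptor (7 μg) incubated with 5 nM [3H](+)-pentazocine in 50 mM Tris-HCl pH 8, 120 min at 37° C. Non-specific binding defined with 10 μM haloperidol. Bound radioligand separated by filtration, washed with ice-cold 10 mM Tris-HCl pH 7.4, and counted by scintillation.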
In the case of `CCC1(N2CCN(CCc3ccncc3F)CC2)CCOC(C)(C)C1` (centres unmarked) [Example 84, 1-(4-ethyl-2,2-dimethyltetrahydro-2H-pyran-4-yl)-4-(2-(3-fluoropyridin-4-yl)ethyl)piperazine], the “μ and σ1 dual binding” value is reported as “++”.
With `CCC1(N2CCN(CCc3ccccn3)CC2)CCOC(C)(C)C1` (centres unmarked) [Example 87, 1-(4-ethyl-2,2-dimethyltetrahydro-2H-pyran-4-yl)-4-(2-(pyridin-2-yl)ethyl)piperazine] the “μ and σ1 dual binding” value was “++”.
With `CC(C)(O)CCN1CCN(C2(C(=O)c3ccccn3)CCOC(C)(C)C2)CC1` (centres unmarked) [Example 90, (4-(4-(3-hydroxy-3-methylbutyl)piperazin-1-yl)-2,2-dimethyltetrahydro-2H-pyran-4-yl)(pyridin-2-yl)methanone] the “μ and σ1 dual binding” value was “++”.
For `CC(C)OCCN1CCN([C@@]2(C(=O)c3ccccn3)CCO[C@H](C)C2)CC1` [Example 95], the “μ and σ1 dual binding” value was “++”.
In the case of `CC(C)CCN1CCN([C@@]2(C(=O)c3ccccn3)CCO[C@H](C)C2)CC1` [Example 97], the “μ and σ1 dual binding” value is reported as “++”.
For `CC(C)C1(N2CCN(CCc3cccc(F)c3F)CC2)CCOC(C)(C)C1` (centres unmarked) [Example 101, 1-(2,3-difluorophenethyl)-4-(4-isopropyl-2,2-dimethyltetrahydro-2H-pyran-4-yl)piperazine], the “μ and σ1 dual binding” value was “++”.
In the case of `CC(C)CN1CCC(C2(C(=O)c3ccccn3)CCOC(C)(C)C2)CC1` (centres unmarked) [Example 102, (4-(1-isobutylpiperidin-4-yl)-2,2-dimethyltetrahydro-2H-pyran-4-yl)(pyridin-2-yl)methanone], the “μ and σ1 dual binding” value is reported as “++”.
`CCOCCN1CCC(C2(C(=O)c3ccccn3)CCOC(C)(C)C2)CC1` (centres unmarked) [Example 104] was tested, and the “μ and σ1 dual binding” value was “++”.
With `CC1(C)CC(C(=O)c2ccccn2)(C2CCN(Cc3ccc(F)cc3)CC2)CCO1` (centres unmarked) [Example 109, (4-(1-(4-fluorobenzyl)piperidin-4-yl)-2,2-dimethyltetrahydro-2H-pyran-4-yl)(pyridin-2-yl)methanone] the “μ and σ1 dual binding” value was “++”.
For `CC1(C)CC(C(=O)c2ccccn2)(C2CCN(Cc3ccccc3F)CC2)CCO1` (centres unmarked) [Example 110, (4-(1-(2-fluorobenzyl)piperidin-4-yl)-2,2-dimethyltetrahydro-2H-pyran-4-yl)(pyridin-2-yl)methanone], the “μ and σ1 dual binding” value was “++”.
In the case of `CC[C@@]1(N2CCN(CCc3ccccc3)CC2)CCOC(C)(C)C1` [Example 113, (R) 1-(4-ethyl-2,2-dimethyltetrahydro-2H-pyran-4-yl)-4-phenethylpiperazine], the “μ and σ1 dual binding” value is reported as “++”.
`c1ccc(C2(N3CCN(Cc4cccnc4)CC3)CCOC3(CCCC3)C2)cc1` (centres unmarked) [Example 119, 1-(9-phenyl-6-oxaspiro[4.5]decan-9-yl)-4-(pyridin-3-ylmethyl)piperazine] was tested, and the “μ and σ1 dual binding” value was “++”.
For `c1ccc(C2(N3CCN(Cc4ccccn4)CC3)CCOC3(CCCC3)C2)cc1` (centres unmarked) [Example 120, 1-(9-phenyl-6-oxaspiro[4.5]decan-9-yl)-4-(pyridin-2-ylmethyl)piperazine], the “μ and σ1 dual binding” value was “++”.
With `N#Cc1cccc(CN2CCN(C3(c4ccccc4)CCOC4(CCCC4)C3)CC2)c1` (centres unmarked) [Example 121, 3-((4-(9-phenyl-6-oxaspiro[4.5]decan-9-yl)piperazin-1-yl)methyl)benzonitrile] the “μ and σ1 dual binding” value was “++”.
`CC(C)CN1CCN(C2(Cc3ccccc3)CCOC3(CCCC3)C2)CC1` (centres unmarked) [Example 123, 1-(9-benzyl-6-oxaspiro[4.5]decan-9-yl)-4-isobutylpiperazine] was tested, and the “μ and σ1 dual binding” value was “++”.
With `c1ccc(CN2CCC(C3(c4ccccn4)CCOCC3)CC2)cc1` [Example 124, 2-(4-(1-benzylpiperidin-4-yl)tetrahydro-2H-pyran-4-yl)pyridine] the “μ and σ1 dual binding” value was “++”.

Same assay, conditions: one class symbol for both Ki-σ1 (human σ1 receptor, A1) and Ki-μ (human μ-opioid receptor, A2); read-out: μ and σ1 dual binding
`CC(C)OCCN1CCN([C@]2(C(=O)c3ccccn3)CCO[C@@H](C)C2)CC1` [Example 96] showed a Ki greater than 500 nM.
For `CC(C)CCN1CCN([C@]2(C(=O)c3ccccn3)CCO[C@@H](C)C2)CC1` [Example 98], the Ki was less than 500 nM.
`CCOCCCN1CCC(C2(C(=O)c3ccccn3)CCOC(C)(C)C2)CC1` (centres unmarked) [Example 103] was tested, and the Ki was greater than 500 nM.
In the case of `CC[C@]1(N2CCN(CCc3ccccc3)CC2)CCOC(C)(C)C1` [Example 112, (S)-1-(4-ethyl-2,2-dimethyltetrahydro-2H-pyran-4-yl)-4-phenethylpiperazine], the Ki is reported as less than 500 nM.

Same assay, conditions: μ and σ1 dual binding, one class symbol for both Ki-σ1 (human σ1 receptor, A1) and Ki-μ (human μ-opioid receptor, A2)
Molecule `CC1(C)CC(C(=O)c2ccccn2)(N2CCN(CCc3ccncc3F)CC2)CCO1` (centres unmarked) [Example 85, (4-(4-(2-(3-fluoropyridin-4-yl)ethyl)piperazin-1-yl)-2,2-dimethyltetrahydro-2H-pyran-4-yl)(pyridin-2-yl)methanone] has a Ki of less than 500 nM.
In the case of `CC(C)CCN1CCCN(C2(C(=O)c3ccccn3)CCOC(C)(C)C2)CC1` (centres unmarked) [Example 86, (4-(4-isopentyl-1,4-diazepan-1-yl)-2,2-dimethyltetrahydro-2H-pyran-4-yl)(pyridin-2-yl)methanone], the Ki is reported as less than 100 nM.
`CC(C)OCCN1CCCN(C2(C(=O)c3ccccn3)CCOC(C)(C)C2)CC1` (centres unmarked) [Example 88, (4-(4-(2-isopropoxyethyl)-1,4-diazepan-1-yl)-2,2-dimethyltetrahydro-2H-pyran-4-yl)(pyridin-2-yl)methanone] was tested, and the Ki was less than 500 nM.
With `CC(C)C1(N2CCN(CCc3ccccc3F)CC2)CCOC(C)(C)C1` (centres unmarked) [Example 89, 1-(2-fluorophenethyl)-4-(4-isopropyl-2,2-dimethyltetrahydro-2H-pyran-4-yl)piperazine] the Ki was less than 500 nM.
`CC(C)C1(N2CCN(CCc3cccc(F)c3)CC2)CCOC(C)(C)C1` (centres unmarked) [Example 91, 1-(3-fluorophenethyl)-4-(4-isopropyl-2,2-dimethyltetrahydro-2H-pyran-4-yl)piperazine] showed a Ki of less than 500 nM.
With `CC(C)C1(N2CCN(CCc3cc(F)ccc3F)CC2)CCOC(C)(C)C1` (centres unmarked) [Example 92, 1-(2,5-difluorophenethyl)-4-(4-isopropyl-2,2-dimethyltetrahydro-2H-pyran-4-yl)piperazine] the Ki was less than 500 nM.
Molecule `CCC1(N2CCN(CCc3cccc(F)c3)CC2)CCOC(C)(C)C1` (centres unmarked) [Example 93, 1-(4-ethyl-2,2-dimethyltetrahydro-2H-pyran-4-yl)-4-(3-fluorophenethyl)piperazine] has a Ki of less than 500 nM.
For `CCC1(N2CCN(CCc3ccccc3F)CC2)CCOC(C)(C)C1` (centres unmarked) [Example 94, 1-(4-ethyl-2,2-dimethyltetrahydro-2H-pyran-4-yl)-4-(2-fluorophenethyl)piperazine], the Ki was less than 500 nM.
`CCC1(N2CCN(CCc3cc(F)ccc3F)CC2)CCOC(C)(C)C1` (centres unmarked) [Example 99, 1-(2,5-difluorophenethyl)-4-(4-ethyl-2,2-dimethyltetrahydro-2H-pyran-4-yl)piperazine] was tested, and the Ki was less than 500 nM.
`CCC1(N2CCN(CCc3cccc(F)c3F)CC2)CCOC(C)(C)C1` (centres unmarked) [Example 100, 1-(2,3-difluorophenethyl)-4-(4-ethyl-2,2-dimethyltetrahydro-2H-pyran-4-yl)piperazine] gave a Ki of less than 500 nM.
`CC(C)OCCCN1CCC(C2(C(=O)c3ccccn3)CCOC(C)(C)C2)CC1` (centres unmarked) [Example 107, (4-(1-(3-isopropoxypropyl)piperidin-4-yl)-2,2-dimethyltetrahydro-2H-pyran-4-yl)(pyridin-2-yl)methanone] showed a Ki greater than 500 nM.
For `CC1(C)CC(C(=O)c2ccccn2)(C2CCN(Cc3cccc(F)c3)CC2)CCO1` (centres unmarked) [Example 108, (4-(1-(3-fluorobenzyl)piperidin-4-yl)-2,2-dimethyltetrahydro-2H-pyran-4-yl)(pyridin-2-yl)methanone], the Ki was less than 500 nM.
In the case of `CC1(C)CC(C(=O)c2ccccn2)(N2CCN(CCc3ccccc3F)CC2)CCO1` (centres unmarked) [Example 111, (4-(4-(2-fluorophenethyl)piperazin-1-yl)-2,2-dimethyltetrahydro-2H-pyran-4-yl)(pyridin-2-yl)methanone], the Ki is reported as less than 500 nM.
`CC(C)CCN1CCC([C@]2(C(=O)c3ccccn3)CCOC(C)(C)C2)CC1` [Example 114, (S)-(4-(1-isopentylpiperidin-4-yl)-2,2-dimethyltetrahydro-2H-pyran-4-yl)(pyridin-2-yl)methanone] gave a Ki of less than 500 nM.
In the case of `CC(C)CCN1CCC([C@@]2(C(=O)c3ccccn3)CCOC(C)(C)C2)CC1` [Example 115, (R)-(4-(1-isopentylpiperidin-4-yl)-2,2-dimethyltetrahydro-2H-pyran-4-yl)(pyridin-2-yl)methanone], the Ki is reported as less than 500 nM.
In the case of `CC(C)(F)COCCN1CCN(C2(C(=O)c3ccccn3)CCOC(C)(C)C2)CC1` (centres unmarked) [Example 116, (4-(4-(2-(2-fluoro-2-methylpropoxy)ethyl)piperazin-1-yl)-2,2-dimethyltetrahydro-2H-pyran-4-yl)(pyridin-2-yl)methanone], the Ki is reported as less than 500 nM.
For `CC(C)(F)CCN1CCN(C2(C(=O)c3ccccn3)CCOC(C)(C)C2)CC1` (centres unmarked) [Example 117, (4-(4-(3-fluoro-3-methylbutyl)piperazin-1-yl)-2,2-dimethyltetrahydro-2H-pyran-4-yl)(pyridin-2-yl)methanone], the Ki was less than 500 nM.
Molecule `C=C(C)CCN1CCN(C2(C(=O)c3ccccn3)CCOC(C)(C)C2)CC1` (centres unmarked) [Example 118, (2,2-Dimethyl-4-(4-(3-methylbut-3-enyl)piperazin-1-yl)tetrahydro-2H-pyran-4-yl)(pyridin-2-yl)methanone] has a Ki of less than 500 nM.
For `c1ccc(CC2(N3CCN(Cc4cccnc4)CC3)CCOC3(CCCC3)C2)cc1` (centres unmarked) [Example 122, 1-(9-benzyl-6-oxaspiro[4.5]decan-9-yl)-4-(pyridin-3-ylmethyl)piperazine], the Ki was less than 500 nM.
`CC1(C)CC(c2ccccn2)(C2CCN(Cc3ccccc3)CC2)CCO1` (centres unmarked) [Example 125, 2-(4-(1-benzylpiperidin-4-yl)-2,2-dimethyltetrahydro-2H-pyran-4-yl)pyridine] gave a Ki greater than 500 nM.
Molecule `CC(C)CN1CCC(C2(c3ccccn3)CCOC(C)(C)C2)CC1` (centres unmarked) [Example 126, 2-(4-(1-isobutylpiperidin-4-yl)-2,2-dimethyltetrahydro-2H-pyran-4-yl)pyridine] has a Ki greater than 500 nM.
